What was measured:
Assay type in all cases: functional
[1] = test system: Mycobacterium tuberculosis; assay: Growth inhibition of Mycobacterium tuberculosis H37Rv at 6.25 ug/ml by radiometric anlaysis; details: read-out: GI
[2] = test system: Staphylococcus aureus; assay: Antibacterial activity against Staphylococcus aureus ATCC 25923 after 24 hr by agar well diffusion method
[3] = test system: Proteus vulgaris; assay: Antibacterial activity against Proteus vulgaris ATCC 29905 after 24 hr by agar well diffusion method
[4] = test system: Escherichia coli; assay: Antibacterial activity against Escherichia coli ATCC 25922 after 24 hr by agar well diffusion method
[5] = test system: Aspergillus niger; assay: Antifungal activity against Aspergillus niger ATCC 9029 after 7 days by agar plate method
[6] = test system: Priestia megaterium; assay: Antibacterial activity against Bacillus megaterium ATCC 14518 after 24 hr by agar well diffusion method
[7] = test system: Mycobacterium tuberculosis; assay: Growth inhibition of Mycobacterium tuberculosis H37Rv at 0.25 ug/ml by radiometric anlaysis; details: read-out: GI

Structure (SMILES)	inhibition of growth at 6.25 µg/mL [1] [%]	inhibition zone (IZ) [2] [mm]	inhibition zone (IZ) [3] [mm]	inhibition zone (IZ) [4] [mm]	diameter of the inhibition zone (DIZ) [5] [mm]	inhibition zone (IZ) [6] [mm]	inhibition of growth at 0.25 µg/mL [7] [%]
CC(=O)N1N=C(c2cccc([N+](=O)[O-])c2)CC1c1ccc(-c2ccc(Cl)c(Cl)c2)o1 (configuration not stated)	6	14	13	17	17	13	
CC(=O)N1N=C(c2ccc([N+](=O)[O-])cc2)CC1c1ccc(-c2ccc(Cl)c(Cl)c2)o1 (configuration not stated)	19	12	14	14	13	16	
Cc1ccc(C(=O)/C=C/c2ccc(-c3ccc(Cl)c(Cl)c3)o2)cc1		13	14	19	13	22	
O=C(/C=C/c1ccc(-c2ccc(Cl)c(Cl)c2)o1)c1cccc([N+](=O)[O-])c1		16	17	11	17	19	
O=C(/C=C/c1ccc(-c2ccc(Cl)c(Cl)c2)o1)c1ccc([N+](=O)[O-])cc1		17	15	12	19	11	
CC(=O)N1N=C(c2ccccc2)CC1c1ccc(-c2ccc(Cl)c(Cl)c2)o1 (configuration not stated)	0	20	17	18	13	17	
CC(=O)N1N=C(c2cccc(N)c2)CC1c1ccc(-c2ccc(Cl)c(Cl)c2)o1 (configuration not stated)	4	13	15	15	17	14	
CC(=O)N1N=C(c2ccc(N)cc2)CC1c1ccc(-c2ccc(Cl)c(Cl)c2)o1 (configuration not stated)	74	17	12	17	19	17	
CC(=O)N1N=C(c2ccc(Br)cc2)CC1c1ccc(-c2ccc(Cl)c(Cl)c2)o1 (configuration not stated)	6	12	19	11	18	20	
CC(=O)N1N=C(c2ccc(Cl)cc2)CC1c1ccc(-c2ccc(Cl)c(Cl)c2)o1 (configuration not stated)	17	16	18	19	21	21	
CC(=O)N1N=C(c2ccc(F)cc2)CC1c1ccc(-c2ccc(Cl)c(Cl)c2)o1 (configuration not stated)	1	13	13	12	17	13	
CC(=O)N1N=C(c2ccccc2O)CC1c1ccc(-c2ccc(Cl)c(Cl)c2)o1 (configuration not stated)	11	16	11	13	15	18	
COc1ccc(C2=NN(C(C)=O)C(c3ccc(-c4ccc(Cl)c(Cl)c4)o3)C2)cc1 (configuration not stated)	0	19	14	20	19	12	
CC(=O)N1N=C(c2ccc(C)cc2)CC1c1ccc(-c2ccc(Cl)c(Cl)c2)o1 (configuration not stated)	0	21	19	12	20	19	
O=C(/C=C/c1ccc(-c2ccc(Cl)c(Cl)c2)o1)c1ccccc1		14	15	19	19	20	
Nc1cccc(C(=O)/C=C/c2ccc(-c3ccc(Cl)c(Cl)c3)o2)c1		19	17	16	17	14	
Nc1ccc(C(=O)/C=C/c2ccc(-c3ccc(Cl)c(Cl)c3)o2)cc1		12	12	13	18	17	
O=C(/C=C/c1ccc(-c2ccc(Cl)c(Cl)c2)o1)c1ccc(Br)cc1		19	16	20	21	21	
O=C(/C=C/c1ccc(-c2ccc(Cl)c(Cl)c2)o1)c1ccc(Cl)cc1		20	15	14	14	15	
O=C(/C=C/c1ccc(-c2ccc(Cl)c(Cl)c2)o1)c1ccc(F)cc1		12	14	16	14	17	
O=C(/C=C/c1ccc(-c2ccc(Cl)c(Cl)c2)o1)c1ccccc1O		16	11	14	18	12	
COc1ccc(C(=O)/C=C/c2ccc(-c3ccc(Cl)c(Cl)c3)o2)cc1		20	19	12	19	13	
CC1(C)S[C@@H]2[C@H](NC(=O)[C@H](N)c3ccc(O)cc3)C(=O)N2[C@H]1C(=O)O [AMOXICILLIN]		22	20	18	0	24	
CC1(C)S[C@@H]2[C@H](NC(=O)[C@H](N)c3ccccc3)C(=O)N2[C@H]1C(=O)O [AMPICILLIN]		20	17	19	0	22	
COC1=CC(=O)C[C@@H](C)[C@]12Oc1c(Cl)c(OC)cc(OC)c1C2=O [GRISEOFULVIN]		0	0	0	26	0	
CCn1cc(C(=O)O)c(=O)c2cc(F)c(N3CCNCC3)cc21 [NORFLOXACIN]		19	21	20	0	23	
CC1(C)S[C@@H]2[C@H](NC(=O)Cc3ccccc3)C(=O)N2[C@H]1C(=O)O [PENICILLIN G]		24	23	22	0	25	
CO[C@H]1/C=C/O[C@@]2(C)Oc3c(C)c(O)c4c(O)c(c(/C=N/N5CCN(C)CC5)c(O)c4c3C2=O)NC(=O)/C(C)=C\C=C\[C@H](C)[C@H](O)[C@@H](C)[C@@H](O)[C@@H](C)[C@H](OC(C)=O)[C@@H]1C [RIFAMPIN]							98
